The test system of data set [1] is PGE2 production in mouse whole blood. As to the kind of experiment: LPS stimulated PGE2 production by mouse whole blood. In kind it is cell-based. The procedure:
Murine blood (C57/b16 male) was collected in heparinized collection tubes. The blood was diluted 0.5 times with cell culture medium without serum. 150 μl diluted blood was transferred into a 96-well microtiterplate. Silbinol™ was dissolved in DMSO and subsequently further diluted before adding to the cells in a concentration range of 0-25-50 μg/ml. Total amount of DMSO in the well was 0.1% DMSO. After 1 hour of preincubation of the mixture of blood cells and Silbinol™ or blood cells and 100 μM Ibuprofen™ at 37° C. in a humidified atmosphere containing 5% CO2, 1 μg/ml LPS was added and incubated for another 20 hours. Plates were centrifuged (5 minutes, 1200 rpm, SorvallRT7™) and supernatants are harvested and stored at −80° C. for further analysis.
PGE2 in the thawed supernatants was determined using the commercial enzyme immunoassay of Biotrak™ (Biotrak Amersham, Buckinghamshire, UK) according to the manufacturer's protocol 2.

Data set [2] concerns PGE2 production by hPBMCs. Briefly: PGE2 production by LPS stimulated hPBMCs (enzyme immunoassay). Format: cell-based, human. To be noted: for pIC50: Homo sapiens, read-out: estimated IC50 (PGE2 production by hPBMCs after LPS stimulation); for PGE2 production / effect on PGE2 production by hPBMCs (in words): after LPS stimulation. On the procedure:
Peripheral Blood Mononuclear Cells (PBMCs) isolated from buffy coats of human blood from 3 healthy donors were stored in liquid nitrogen using standard procedures. For each experiment, PBMCs were thawed, transferred into a 50 ml centrifuge tube (BD Falcon, Erembodegem Aalst, Belgium) and cell culture medium (RPNI-1640 containing 25 mM HEPES and 2 mM L-glutamine (Life-Technologies, Merelbeke, Belgium) and further enriched with 10% heat inactivated fetal calf serum (^hiFCS), 120 U/ml penicillin/streptomycin and 1.2 mM sodium pyruvate) was added in a drop-wise fashion. Subsequently cells were centrifuged for 5 minutes at 1200 rpm (Sorvall RT7™). Cells were washed with cell culture medium (two times) and counted using a coulter counter (Beckman Coulter, Fullerton, Calif., USA). Parallel, a microscopic viability check using trypan blue is performed. PBMCs were pipetted into a 96-well flat bottom microtiterplate (BD Falcon, Brembodegem Aalst, Belgium), 1.5×10^5 cells per well. Pterostilbene (Chromadex, Santa Anna, Calif., USA), Silbinol™ (Pterocarpus marsupium plant extract containing at least 5 wt. % pterostilbene based on dried weight; Sabinsa Corporation, Piscataway, USA) and resveratrol (Sigma, St. Louis, USA) were dissolved in dimethylsulfoxide (DMSO) and subsequently further diluted in cell culture medium and added to the cells in a concentration range (see below). DMSO concentration in the wells was 0.1%. Subsequently the cells were incubated for 1 hour at 37° C. in a humidified atmosphere containing 5% CO2. After 1 hour, lipopolysaccharide (LPS, E. Coli […], […]) was added and the cells were incubated for 20 hours at 37° C. in a humidified atmosphere containing 5% CO2. The supernatants were harvested 20 hours after incubation and stored at −80° C. until further analysis. Metabolic activity of the PBMCs with and without the presence of test compound was determined using the succinate dehydrogenase activity.
Concentrations of 3.12, 6.25, 12.5, 25 and 50 μg/ml of either Pterostilbene or Silbinol™ were tested to find the dose range of inhibitory activity (Table 1 and 2). Following the determination of the dose range with PGE2 production inhibitory activity, concentrations of 0, 2, 4, 8, 16 and 32 μg/ml Silbinol™ (Table 3) and 0, 0.037, 0.11, 0.33, 1 and 3 μM pterostilbene (Table 4) were tested.
For comparative purposes, the effects 0, 0.33, 1, 3, 9 and 27 μM resveratrol on PGE2 production by hPBMCs was determined (Table 5).
PGE2 in the thawed supernatants was measured using a commercial enzyme immunoassay (Biotrak Amersham, Buckinghamshire, UK) according to the manufacturer's protocol 2.

For another data set, the system named is hPBMCs. As to the kind of experiment: Metabolic activity of PBMCs (succinate dehydrogenase activity). Particulars: lower dose range (Table 4), compared with PGE2 inhibition. In kind it is cell-based, human. On the procedure: Peripheral Blood Mononuclear Cells (PBMCs) isolated from buffy coats of human blood from 3 healthy donors were stored in liquid nitrogen using standard procedures. For each experiment, PBMCs were thawed, transferred into a 50 ml centrifuge tube (BD Falcon, Erembodegem Aalst, Belgium) and cell culture medium (RPNI-1640 containing 25 mM HEPES and 2 mM L-glutamine (Life-Technologies, Merelbeke, Belgium) and further enriched with 10% heat inactivated fetal calf serum (^hiFCS), 120 U/ml penicillin/streptomycin and 1.2 mM sodium pyruvate) was added in a drop-wise fashion. Subsequently cells were centrifuged for 5 minutes at 1200 rpm (Sorvall RT7™). Cells were washed with cell culture medium (two times) and counted using a coulter counter (Beckman Coulter, Fullerton, Calif., USA). Parallel, a microscopic viability check using trypan blue is performed. PBMCs were pipetted into a 96-well flat bottom microtiterplate (BD Falcon, Brembodegem Aalst, Belgium), 1.5×10^5 cells per well. […] Metabolic activity of the PBMCs with and without the presence of test compound was determined using the succinate dehydrogenase activity.

pIC50: −log10 of the molar value.

In the case of `CC(C)Cc1ccc(C(C)C(=O)O)cc1` (stereo not shown) [Ibuprofen], the PGE2 production in data set [1] (100 μM, LPS stimulated mouse whole blood) worked out at 1709 pg/mL. For the same compound, the “effect on PGE2 production in mouse whole blood (in words)” value in data set [1] (LPS stimulated) was “inhibit PGE2 production”.
As for `Oc1ccc(C=Cc2cc(O)cc(O)c2)cc1` [Resveratrol, resveratrol, reference compound], in data set [2], the pIC50 was 5.33. Further, the PGE2 production came to 6717 pg/mL in data set [2] (Table 5, 0.33 μM, Mean of donors A-C); 8380 pg/mL in data set [2] (Table 5, 0.33 μM, donor A); 8060 pg/mL in data set [2] (Table 5, 0.33 μM, donor B); 3710 pg/mL in data set [2] (Table 5, 0.33 μM, donor C); 5601 pg/mL in data set [2] (Table 5, 1 μM, Mean of donors A-C); 6835 pg/mL in data set [2] (Table 5, 1 μM, donor A). Further, the PGE2 production in data set [2] (Table 5, 1 μM, donor B) came out at 7369 pg/mL; in data set [2] (Table 5, 1 μM, donor C), 2597 pg/mL; in data set [2] (Table 5, 3 μM, Mean of donors A-C) it was 2916 pg/mL; in data set [2] (Table 5, 3 μM, donor A), 3120 pg/mL; in data set [2] (Table 5, 3 μM, donor B), 5449 pg/mL; in data set [2] (Table 5, 3 μM, donor C) it was 178 pg/mL. Also, the PGE2 production in data set [2] (Table 5, 9 μM, Mean of donors A-C) turned out to be 1383 pg/mL; in data set [2] (Table 5, 9 μM, donor A), 1213 pg/mL; in data set [2] (Table 5, 9 μM, donor B) it was 2936 pg/mL; in data set [2] (Table 5, 27 μM, Mean of donors A-C), 1090 pg/mL; in data set [2] (Table 5, 27 μM, donor A), 913 pg/mL; in data set [2] (Table 5, 27 μM, donor B), 2355 pg/mL. Further, the “effect on PGE2 production by hPBMCs (in words)” value in data set [2] was “inhibit PGE2 production”.
As for `COc1cc(C=Cc2ccc(O)cc2)cc(OC)c1` [Pterostilbene, 4′-hydroxy-3,5-dimethoxystilbene], the PGE2 production stood at 5434 pg/mL in data set [2] (0.037 μM, Mean of donors A-C); 5957 pg/mL in data set [2] (0.037 μM, donor A); 7788 pg/mL in data set [2] (0.037 μM, donor B); 2574 pg/mL in data set [2] (0.037 μM, donor C); 4494 pg/mL in data set [2] (0.11 μM, Mean of donors A-C); 5305 pg/mL in data set [2] (0.11 μM, donor A). For the same compound, the PGE2 production in data set [2] (0.11 μM, donor B) is 6930 pg/mL; in data set [2] (0.11 μM, donor C), 1248 pg/mL; in data set [2] (0.33 μM, Mean of donors A-C), 2589 pg/mL; in data set [2] (0.33 μM, donor A) it was 2786 pg/mL; in data set [2] (0.33 μM, donor B) it was 4782 pg/mL; in data set [2] (0.33 μM, donor C) it was 199 pg/mL. For the same compound, the PGE2 production in data set [2] (1 μM, Mean of donors A-C) turned out to be 1879 pg/mL; in data set [2] (1 μM, donor A) it was 2067 pg/mL; in data set [2] (1 μM, donor B) it was 3570 pg/mL; in data set [2] (3 μM, Mean of donors A-C), 691 pg/mL; in data set [2] (3 μM, donor A), 280 pg/mL; in data set [2] (3 μM, donor B) it was 1794 pg/mL. Further, the PGE2 production in data set [2] (3.12 μg/ml, Mean of donors A-C) turned out to be 39 pg/mL; in data set [2] (3.12 μg/ml, donor B) it was 117 pg/mL; in data set [2] (6.25 μg/ml, Mean of donors A-C), 9 pg/mL; in data set [2] (6.25 μg/ml, donor A), 28 pg/mL; in data set [2] (12.5 μg/ml, Mean of donors A-C), 2 pg/mL; in data set [2] (12.5 μg/ml, donor B), 5 pg/mL. The PGE2 production in data set [2] (25 μg/ml, Mean of donors A-C) is 44 pg/mL; in data set [2] (25 μg/ml, donor A) it was 63 pg/mL; in data set [2] (25 μg/ml, donor B) it was 69 pg/mL; in data set [2] (50 μg/ml, Mean of donors A-C), 269 pg/mL; in data set [2] (50 μg/ml, donor A), 584 pg/mL; in data set [2] (50 μg/ml, donor B), 222 pg/mL. The pIC50 in data set [2] was 6.08. In addition, the “effect on PGE2 production by hPBMCs (in words)” value in data set [2] is given as “inhibit PGE2 production”. Further, in the data set with hPBMCs, the “metabolic activity of hPBMCs” value was “decrease, however to a much lesser extent”.

One may read the pIC50 as the negative decadic logarithm of the IC50, by convention in mol/L.

(Values after US20050038125A1, “Method for the treatment of arthritis and pain” (priority 2003, published 2005).)
